Results reported in ChEMBL document CHEMBL1201862, “PubChem BioAssay data set” (2004).
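Results reflect a 48-hour exposure of cells in 96-well plates to compound at five concentrations. GI50: concentration for 50% inhibition of growth.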 Activity calls are given as the source filed them. Cut-off read from the data, not from the text of the source: active = GI50 up to about 1.1 µM and inactive = higher.

How the values were obtained:
Assay in all cases: NCI-60 cell line screen, 48 h
RXF 393 = tested on: RXF 393
NCI-H522 = tested on: NCI-H522
HCT-15 = tested on: HCT-15
SK-MEL-5 = tested on: SK-MEL-5
HT-29 = tested on: HT-29
SNB-19 = tested on: SNB-19
MCF7 = tested on: MCF7
EKVX = tested on: EKVX
SK-MEL-28 = tested on: SK-MEL-28
A498 = tested on: A498
OVCAR-3 = tested on: OVCAR-3
NCI-H226 = tested on: NCI-H226
KM12 = tested on: KM12
UACC-257 = tested on: UACC-257
786-0 = tested on: 786-0
IGROV-1 = tested on: IGROV-1
HCT-116 = tested on: HCT-116
Malme-3M = tested on: Malme-3M
COLO 205 = tested on: COLO 205
CAKI-1 = tested on: CAKI-1
MDA-MB-435 = tested on: MDA-MB-435
SF-539 = tested on: SF-539
PC-3 = tested on: PC-3
SW-620 = tested on: SW-620
T47D = tested on: T47D
HL-60 = tested on: HL-60
BT-549 = tested on: BT-549
NCI-H460 = tested on: NCI-H460
K562 = tested on: K562
Hs-578T = tested on: Hs-578T
A549 = tested on: A549
DU-145 = tested on: DU-145
UACC-62 = tested on: UACC-62
M14 = tested on: M14
OVCAR-8 = tested on: OVCAR-8
CCRF-CEM = tested on: CCRF-CEM
NCI/ADR-RES = tested on: NCI/ADR-RES
UO-31 = tested on: UO-31
SK-MEL-2 = tested on: SK-MEL-2
MDA-N = tested on: MDA-N
RPMI-8226 = tested on: RPMI-8226
SNB-75 = tested on: SNB-75
SK-OV-3 = tested on: SK-OV-3
NCI-H23 = tested on: NCI-H23
ACHN = tested on: ACHN
MDA-MB-231 = tested on: MDA-MB-231
HOP-62 = tested on: HOP-62
SF-295 = tested on: SF-295
SN12C = tested on: SN12C
TK-10 = tested on: TK-10
LOX IMVI = tested on: LOX IMVI
U-251 = tested on: U-251
SF-268 = tested on: SF-268
OVCAR-5 = tested on: OVCAR-5
OVCAR-4 = tested on: OVCAR-4
HCC 2998 = tested on: HCC 2998
MOLT-4 = tested on: MOLT-4
HOP-92 = tested on: HOP-92

CCC1(CC)C(=O)N(C(=O)c2cc(OC)c(OC)c(OC)c2)N(C(=O)c2cc(OC)c(OC)c(OC)c2)C1=O
GI50 (RXF 393): > 50 µM (inactive) | GI50 (NCI-H522): > 50 µM (inactive) | GI50 (HCT-15): > 50 µM | GI50 (SK-MEL-5): 46.1 µM (inactive) | GI50 (HT-29): > 50 µM (inactive) | GI50 (SNB-19): > 50 µM (inactive) | GI50 (MCF7): > 50 µM (inactive) | GI50 (EKVX): > 50 µM (inactive) | GI50 (SK-MEL-28): > 50 µM (inactive) | GI50 (A498): > 50 µM (inactive) | GI50 (OVCAR-3): > 50 µM (inactive) | GI50 (NCI-H226): > 50 µM (inactive) | GI50 (KM12): > 50 µM (inactive) | GI50 (UACC-257): > 50 µM (inactive) | GI50 (786-0): > 50 µM (inactive) | GI50 (IGROV-1): > 50 µM (inactive) | GI50 (HCT-116): > 50 µM (inactive) | GI50 (Malme-3M): > 50 µM (inactive) | GI50 (COLO 205): > 50 µM (inactive) | GI50 (CAKI-1): > 50 µM (inactive) | GI50 (MDA-MB-435): > 50 µM (inactive) | GI50 (SF-539): > 50 µM (inactive) | GI50 (PC-3): > 50 µM (inactive) | GI50 (SW-620): > 50 µM (inactive) | GI50 (T47D): > 50 µM (inactive) | GI50 (HL-60): 28.5 µM (inactive) | GI50 (BT-549): > 50 µM (inactive) | GI50 (NCI-H460): > 50 µM (inactive) | GI50 (K562): > 50 µM (inactive) | GI50 (Hs-578T): > 50 µM (inactive) | GI50 (A549): > 50 µM (inactive) | GI50 (DU-145): > 50 µM (inactive) | GI50 (UACC-62): > 50 µM (inactive) | GI50 (M14): > 50 µM (inactive) | GI50 (OVCAR-8): > 50 µM (inactive) | GI50 (CCRF-CEM): > 50 µM (inactive) | GI50 (NCI/ADR-RES): > 50 µM (inactive) | GI50 (UO-31): > 50 µM (inactive) | GI50 (SK-MEL-2): > 50 µM (inactive) | GI50 (MDA-N): > 50 µM (inactive) | GI50 (RPMI-8226): > 50 µM (inactive) | GI50 (SNB-75): 42.9 µM (inactive) | GI50 (SK-OV-3): > 50 µM (inactive) | GI50 (NCI-H23): > 50 µM (inactive) | GI50 (ACHN): > 50 µM (inactive) | GI50 (MDA-MB-231): > 50 µM (inactive) | GI50 (HOP-62): > 50 µM (inactive) | GI50 (SF-295): 24.8 µM (inactive) | GI50 (SN12C): 21.8 µM (inactive) | GI50 (TK-10): > 50 µM (inactive) | GI50 (LOX IMVI): > 50 µM (inactive) | GI50 (U-251): > 50 µM (inactive) | GI50 (SF-268): > 50 µM (inactive) | GI50 (OVCAR-5): > 50 µM (inactive) | GI50 (OVCAR-4): > 50 µM (inactive) | GI50 (HCC 2998): > 50 µM (inactive)

Clc1ccc(OCc2nnc(CCCCCCCCc3nnc(COc4ccc(Cl)cc4Cl)n3Nc3ccccc3)n2Nc2ccccc2)c(Cl)c1
GI50 (RXF 393): 16.3 µM (inactive) | GI50 (NCI-H522): 8.75 µM (inactive) | GI50 (HCT-15): 10.9 µM | GI50 (SK-MEL-5): 2.23 µM (inactive) | GI50 (HT-29): 13.8 µM (inactive) | GI50 (SNB-19): 17.7 µM (inactive) | GI50 (MCF7): 7.06 µM (inactive) | GI50 (EKVX): 19 µM (inactive) | GI50 (SK-MEL-28): 5.46 µM (inactive) | GI50 (A498): 21.4 µM (inactive) | GI50 (OVCAR-3): 12 µM (inactive) | GI50 (NCI-H226): 9.51 µM (inactive) | GI50 (KM12): 10.7 µM (inactive) | GI50 (UACC-257): 10.8 µM (inactive) | GI50 (786-0): 15.2 µM (inactive) | GI50 (IGROV-1): 13 µM (inactive) | GI50 (HCT-116): 11.4 µM (inactive) | GI50 (Malme-3M): 19.5 µM (inactive) | GI50 (COLO 205): 1.5 µM (inactive) | GI50 (CAKI-1): 8.73 µM (inactive) | GI50 (MDA-MB-435): 5.97 µM (inactive) | GI50 (SF-539): 11.4 µM (inactive) | GI50 (PC-3): 3.07 µM (inactive) | GI50 (SW-620): 12.7 µM (inactive) | GI50 (T47D): 6.53 µM (inactive) | GI50 (BT-549): 17.9 µM (inactive) | GI50 (NCI-H460): 4.15 µM (inactive) | GI50 (Hs-578T): 15.8 µM (inactive) | GI50 (MOLT-4): 22.7 µM (inactive) | GI50 (A549): 8.77 µM (inactive) | GI50 (DU-145): 18.6 µM (inactive) | GI50 (UACC-62): 1.47 µM (inactive) | GI50 (M14): 11.3 µM (inactive) | GI50 (OVCAR-8): 17.4 µM (inactive) | GI50 (NCI/ADR-RES): 11.9 µM (inactive) | GI50 (UO-31): 11.8 µM (inactive) | GI50 (SK-MEL-2): 8.04 µM (inactive) | GI50 (MDA-N): 9.93 µM (inactive) | GI50 (RPMI-8226): 2.34 µM (inactive) | GI50 (SNB-75): 23 µM (inactive) | GI50 (SK-OV-3): 11.5 µM (inactive) | GI50 (NCI-H23): 15.1 µM (inactive) | GI50 (ACHN): 2.44 µM (inactive) | GI50 (MDA-MB-231): 8.41 µM (inactive) | GI50 (HOP-62): 3.02 µM (inactive) | GI50 (HOP-92): 17.4 µM (inactive) | GI50 (SF-295): 1.38 µM (inactive) | GI50 (SN12C): 18.4 µM (inactive) | GI50 (TK-10): 16.8 µM (inactive) | GI50 (LOX IMVI): 19 µM (inactive) | GI50 (U-251): 13.1 µM (inactive) | GI50 (SF-268): 14.2 µM (inactive) | GI50 (OVCAR-5): 9.23 µM (inactive) | GI50 (OVCAR-4): 8.51 µM (inactive) | GI50 (HCC 2998): 7.21 µM (inactive)

CCOC(=O)C(C)(C)Oc1ccc(Cl)cc1 [CLOFIBRATE]
GI50 (RXF 393): 160 µM (inactive) | GI50 (NCI-H522): 435 µM (inactive) | GI50 (HCT-15): 435 µM | GI50 (SK-MEL-5): 147 µM (inactive) | GI50 (HT-29): 159 µM (inactive) | GI50 (SNB-19): > 1000 µM (inactive) | GI50 (MCF7): 325 µM (inactive) | GI50 (EKVX): 201 µM (inactive) | GI50 (SK-MEL-28): 489 µM (inactive) | GI50 (A498): 297 µM (inactive) | GI50 (NCI-H226): 188 µM (inactive) | GI50 (KM12): 324 µM (inactive) | GI50 (UACC-257): 177 µM (inactive) | GI50 (786-0): 462 µM (inactive) | GI50 (IGROV-1): 461 µM (inactive) | GI50 (HCT-116): 214 µM (inactive) | GI50 (Malme-3M): 215 µM (inactive) | GI50 (COLO 205): 202 µM (inactive) | GI50 (CAKI-1): > 1000 µM (inactive) | GI50 (MDA-MB-435): 601 µM (inactive) | GI50 (SF-539): 366 µM (inactive) | GI50 (PC-3): 359 µM (inactive) | GI50 (SW-620): 614 µM (inactive) | GI50 (T47D): 202 µM (inactive) | GI50 (HL-60): > 1000 µM (inactive) | GI50 (BT-549): > 1000 µM (inactive) | GI50 (NCI-H460): 632 µM (inactive) | GI50 (K562): > 1000 µM (inactive) | GI50 (Hs-578T): 208 µM (inactive) | GI50 (MOLT-4): 161 µM (inactive) | GI50 (A549): 432 µM (inactive) | GI50 (DU-145): 935 µM (inactive) | GI50 (UACC-62): 514 µM (inactive) | GI50 (M14): > 1000 µM (inactive) | GI50 (OVCAR-8): 63.1 µM (inactive) | GI50 (CCRF-CEM): 596 µM (inactive) | GI50 (NCI/ADR-RES): 285 µM (inactive) | GI50 (UO-31): 726 µM (inactive) | GI50 (SK-MEL-2): 173 µM (inactive) | GI50 (MDA-N): 566 µM (inactive) | GI50 (SNB-75): 229 µM (inactive) | GI50 (SK-OV-3): 986 µM (inactive) | GI50 (NCI-H23): 303 µM (inactive) | GI50 (ACHN): > 1000 µM (inactive) | GI50 (MDA-MB-231): > 1000 µM (inactive) | GI50 (HOP-62): > 1000 µM (inactive) | GI50 (HOP-92): 177 µM (inactive) | GI50 (SF-295): 319 µM (inactive) | GI50 (SN12C): 320 µM (inactive) | GI50 (TK-10): > 1000 µM (inactive) | GI50 (LOX IMVI): 156 µM (inactive) | GI50 (U-251): > 1000 µM (inactive) | GI50 (SF-268): 650 µM (inactive) | GI50 (OVCAR-5): 446 µM (inactive) | GI50 (OVCAR-4): 322 µM (inactive) | GI50 (HCC 2998): 505 µM (inactive)
